Test results from patent publication US20110015119A1, “NOVEL SEMI-SYNTHETIC GLYCOPEPTIDES AS ANTIBACTERIAL AGENTS” (LEAD THERAPEUTICS, INC., priority 2009, published 2011).
Values after ≈ are worked out from the molar mass of the structure shown. Where two headings read alike, the source gives them in different places.

How the values were obtained:
Assay type in all cases: cell-based
[1] = tested on: Enterococcus faecalis 848 (VRE, Van A); assay: MIC by broth microdilution, EFc 848; conditions: class symbols
Procedure: (§1) Antibacterial activity in vitro is investigated by broth microdilution method in Meuller-Hinton broth as recommended by NCCLS. All strains tested are clinical isolates either sensitive or resistant to natural glycopeptides. MIC values were determined using the CLSI-recommended broth microdilution procedure (Clinical and Laboratory Standards Institute, Methods for Dilution Antimicrobial Susceptibility Tests for Bacteria That Grow Aerobically; Approved Standard-Seventh Edition.). Automated liquid handlers (Multidrop 384, Labsystems, Helsinki, Finland; Biomek 2000 and Multimek 96, Beckman Coulter, Fullerton Calif.) were used to conduct serial dilutions and liquid transfers. The MIC value for vancomycin is given for comparison. The abbreviations for organisms tested are as follow: SA 100—Staphylococcus aureus 100 (ATCC 29213); SA 757—Staphylococcus aureus 757 (MRSA); SA 2012—Staphylococcus aureus 2012 (VISA); SE 835—Staphylococcus epidermidis 835; SE 831—Staphylococcus epidermidis 831 (MRSE); EFc 101—Enterococcus faecalis 101 (ATCC 29212); EFc 848—Enterococcus faecalis 848 (VRE, Van A); EFcm 800—Enterococcus faecium 800; EFcm 752—Enterococcus faecium 752 (VRE, Van A); SPNE 1195—Streptococcus pneumoniae 1195 (ATCC 49619); SPY 712—Streptococcus pyogenes 712.

[2] = tested on: Enterococcus faecium 752 (VRE, Van A); assay: MIC by broth microdilution, EFcm 752; conditions: class symbols
Procedure: as §1

[3] = tested on: Staphylococcus aureus 2012 (VISA); assay: MIC by broth microdilution, SA 2012; conditions: class symbols
Procedure: as §1

[4] = tested on: Streptococcus pyogenes 712; assay: MIC by broth microdilution, SPY 712
Procedure: as §1

[5] = tested on: Staphylococcus epidermidis 831 (MRSE); assay: MIC by broth microdilution, SE 831; conditions: read-out: MIC SE 831
Procedure: as §1

[6] = tested on: Staphylococcus epidermidis 835; assay: MIC by broth microdilution, SE 835
Procedure: as §1

[7] = tested on: Streptococcus pneumoniae 1195 (ATCC 49619); assay: MIC by broth microdilution, SPNE 1195
Procedure: as §1

[8] = tested on: Enterococcus faecalis 101 (ATCC 29212); assay: MIC by broth microdilution, EFc 101; conditions: class symbols
Procedure: as §1

[9] = tested on: Staphylococcus aureus 100 (ATCC 29213); assay: MIC by broth microdilution, SA 100
Procedure: as §1

Enterococcus faecium 800 = assay: MIC by broth microdilution, EFcm 800
Procedure: as §1

[10] = tested on: Staphylococcus aureus 757 (MRSA); assay: MIC by broth microdilution, SA 757; conditions: read-out: MIC SA 757
Procedure: as §1

[11] = Enterococcus faecalis 848 (VRE, Van A), read-out: MIC E FC 848
[12] = Enterococcus faecium 752 (VRE, Van A), read-out: MIC E FCM 752
[13] = Staphylococcus aureus 2012 (VISA), read-out: MIC SA 2012
[14] = Streptococcus pyogenes 712, class symbols, read-out: MIC S PYO 712
[15] = Staphylococcus epidermidis 831 (MRSE), class symbols
[16] = Staphylococcus epidermidis 835, class symbols, read-out: MIC SE 835
[17] = ATCC49619, Streptococcus pneumoniae 1195 (ATCC 49619), class symbols, read-out: MIC S PNE 1195
[18] = ATCC29212, Enterococcus faecalis 101 (ATCC 29212), read-out: MIC E FC 101
[19] = ATCC29213, Staphylococcus aureus 100 (ATCC 29213), class symbols, read-out: MIC SA 100
[20] = Enterococcus faecium 800, class symbols, read-out: MIC E FCM 800
[21] = Staphylococcus aureus 757 (MRSA), class symbols
[22] = Enterococcus faecalis, VRE, read-out: MIC E FC 848, Enterococcus faecalis 848 (VRE, Van A)
[23] = Enterococcus faecium, VRE, read-out: MIC E FCM 752, Enterococcus faecium 752 (VRE, Van A)
[24] = Staphylococcus aureus, VISA, read-out: MIC SA 2012, Staphylococcus aureus 2012 (VISA)
[25] = Streptococcus pyogenes, 712, read-out: MIC S PYO 712
[26] = Staphylococcus epidermidis, MRSE
[27] = Staphylococcus epidermidis, 835, read-out: MIC SE 835
[28] = Streptococcus pneumoniae, ATCC49619, read-out: MIC S PNE 1195
[29] = Enterococcus faecalis, ATCC29212, read-out: MIC E FC 101, Enterococcus faecalis 101 (ATCC 29212)
[30] = Staphylococcus aureus, ATCC29213, read-out: MIC SA 100
[31] = Enterococcus faecium, 800, read-out: MIC E FCM 800

MIC [1, 11]	MIC [2, 12]	MIC [3, 13]	MIC [4, 14]	MIC [5, 15]	MIC [6, 16]	MIC [7, 17]	MIC [8, 18]	MIC [9, 19]	MIC (Enterococcus faecium 800; [20])	MIC [10, 21]	Structure (SMILES)	MIC [1, 22]	MIC [4, 25]	MIC [5, 26]	MIC [6, 27]	MIC [7, 28]	MIC [8, 29]	MIC [9, 30]	MIC (Enterococcus faecium 800; [31])	MIC ([10]; Staphylococcus aureus, MRSA)	further results
8 to 16 µg/mL (≈ 4.38 to 8.75 µM)	1 to 2 µg/mL (≈ 0.547 to 1.09 µM)	0.01 to 0.5 µg/mL (≈ 0.00547 to 0.274 µM)	0.01 to 0.5 µg/mL (≈ 0.00547 to 0.274 µM)	0.01 to 0.5 µg/mL (≈ 0.00547 to 0.274 µM)	0.01 to 0.5 µg/mL (≈ 0.00547 to 0.274 µM)	0.01 to 0.5 µg/mL (≈ 0.00547 to 0.274 µM)	0.01 to 0.5 µg/mL (≈ 0.00547 to 0.274 µM)	0.01 to 0.5 µg/mL (≈ 0.00547 to 0.274 µM)	0.01 to 0.5 µg/mL (≈ 0.00547 to 0.274 µM)	0.01 to 0.5 µg/mL (≈ 0.00547 to 0.274 µM)	CCCCCCc1ccc(S(=O)(=O)NCCCCCCNCc2c(O)cc3c(c2O)-c2cc(ccc2O)[C@H]2NC(=O)[C@@H]4NC(=O)[C@H](CC(N)=O)NC(=O)[C@H](NC(=O)[C@@H](CC(C)C)NC)[C@H](O)c5ccc(c(Cl)c5)Oc5cc4cc(c5O[C@@H]4O[C@H](CO)[C@@H](O)[C@H](O)[C@H]4O[C@H]4C[C@]5(C)NC(=O)O[C@@H]5[C@H](C)O4)Oc4ccc(cc4Cl)[C@@H](O)[C@H](NC2=O)C(=O)N[C@@H]3C(=O)O)cc1 (atropisomer, axis not shown) [Compound 305]	–	–	–	–	–	–	–	–	–	–
> 16 µg/mL	4 to 8 µg/mL (≈ 2.2 to 4.41 µM)	0.5 to 1 µg/mL (≈ 0.275 to 0.551 µM)	0.01 to 0.5 µg/mL (≈ 0.00551 to 0.275 µM)	0.01 to 0.5 µg/mL (≈ 0.00551 to 0.275 µM)	0.01 to 0.5 µg/mL (≈ 0.00551 to 0.275 µM)	0.01 to 0.5 µg/mL (≈ 0.00551 to 0.275 µM)	0.01 to 0.5 µg/mL (≈ 0.00551 to 0.275 µM)	0.01 to 0.5 µg/mL (≈ 0.00551 to 0.275 µM)	0.01 to 0.5 µg/mL (≈ 0.00551 to 0.275 µM)	0.01 to 0.5 µg/mL (≈ 0.00551 to 0.275 µM)	CCCCCCc1ccc(S(=O)(=O)NCCOCCNCc2c(O)cc3c(c2O)-c2cc(ccc2O)[C@H]2NC(=O)[C@@H]4NC(=O)[C@H](CC(N)=O)NC(=O)[C@H](NC(=O)[C@@H](CC(C)C)NC)[C@H](O)c5ccc(c(Cl)c5)Oc5cc4cc(c5O[C@@H]4O[C@H](CO)[C@@H](O)[C@H](O)[C@H]4O[C@H]4C[C@]5(C)NC(=O)O[C@@H]5[C@H](C)O4)Oc4ccc(cc4Cl)[C@@H](O)[C@H](NC2=O)C(=O)N[C@@H]3C(=O)O)cc1 (atropisomer, axis not shown) [Compound 308]	–	–	–	–	–	–	–	–	–	–
–	–	–	–	–	–	–	–	–	–	–	CCCCCOc1ccc(S(=O)(=O)NCCCCCCNC(=O)Oc2cc(O)c3c(c2)[C@@H](C(=O)O)NC(=O)[C@H]2NC(=O)[C@H](NC(=O)[C@@H]4NC(=O)[C@H](CC(N)=O)NC(=O)[C@H](NC(=O)[C@@H](CC(C)C)NC)[C@H](O)c5ccc(c(Cl)c5)Oc5cc4cc(c5O[C@@H]4O[C@H](CO)[C@@H](O)[C@H](O)[C@H]4O[C@H]4C[C@](C)(N)[C@H](O)[C@H](C)O4)Oc4ccc(cc4Cl)[C@H]2O)c2ccc(O)c-3c2)cc1 (atropisomer, axis not shown) [Compound 322]	8 to 16 µg/mL (≈ 4.4 to 8.8 µM)	0.01 to 0.5 µg/mL (≈ 0.0055 to 0.275 µM)	0.01 to 0.5 µg/mL (≈ 0.0055 to 0.275 µM)	0.01 to 0.5 µg/mL (≈ 0.0055 to 0.275 µM)	0.01 to 0.5 µg/mL (≈ 0.0055 to 0.275 µM)	0.01 to 0.5 µg/mL (≈ 0.0055 to 0.275 µM)	0.01 to 0.5 µg/mL (≈ 0.0055 to 0.275 µM)	0.01 to 0.5 µg/mL (≈ 0.0055 to 0.275 µM)	0.01 to 0.5 µg/mL (≈ 0.0055 to 0.275 µM)	MIC [2, 23]: 2 to 4 µg/mL (≈ 1.1 to 2.2 µM); MIC [3, 24]: 1 to 2 µg/mL (≈ 0.55 to 1.1 µM)
–	–	–	–	–	–	–	–	–	–	–	CCCOc1ccc(NC(=O)Oc2cc(O)c3c(c2)[C@@H](C(=O)O)NC(=O)[C@H]2NC(=O)[C@H](NC(=O)[C@@H]4NC(=O)[C@H](CC(N)=O)NC(=O)[C@H](NC(=O)[C@@H](CC(C)C)NC)[C@H](O)c5ccc(c(Cl)c5)Oc5cc4cc(c5O[C@@H]4O[C@H](CO)[C@@H](O)[C@H](O)[C@H]4O[C@H]4C[C@](C)(N)[C@H](O)[C@H](C)O4)Oc4ccc(cc4Cl)[C@H]2O)c2ccc(O)c-3c2)cc1 (atropisomer, axis not shown) [Compound 329]	> 16 µg/mL	0.01 to 0.5 µg/mL (≈ 0.00615 to 0.307 µM)	2 to 4 µg/mL (≈ 1.23 to 2.46 µM)	2 to 4 µg/mL (≈ 1.23 to 2.46 µM)	0.01 to 0.5 µg/mL (≈ 0.00615 to 0.307 µM)	0.5 to 1 µg/mL (≈ 0.307 to 0.615 µM)	1 to 2 µg/mL (≈ 0.615 to 1.23 µM)	0.5 to 1 µg/mL (≈ 0.307 to 0.615 µM)	0.5 to 1 µg/mL (≈ 0.307 to 0.615 µM)	MIC [2, 23]: > 16 µg/mL; MIC [3, 24]: 8 to 16 µg/mL (≈ 4.92 to 9.84 µM)
–	–	–	–	–	–	–	–	–	–	–	CCCCCOc1ccc(CCNC(=O)Oc2cc(O)c3c(c2)[C@@H](C(=O)NC2C4CC5CC(C4)CC2C5)NC(=O)[C@H]2NC(=O)[C@H](NC(=O)[C@@H]4NC(=O)[C@H](CC(N)=O)NC(=O)[C@H](NC(=O)[C@@H](CC(C)C)NC)[C@H](O)c5ccc(c(Cl)c5)Oc5cc4cc(c5O[C@@H]4O[C@H](CO)[C@@H](O)[C@H](O)[C@H]4O[C@H]4C[C@](C)(N)[C@H](O)[C@H](C)O4)Oc4ccc(cc4Cl)[C@H]2O)c2ccc(O)c-3c2)cc1 (stereo partly shown) [Compound 338]	–	0.01 to 0.5 µg/mL (≈ 0.00551 to 0.275 µM)	0.01 to 0.5 µg/mL (≈ 0.00551 to 0.275 µM)	0.01 to 0.5 µg/mL (≈ 0.00551 to 0.275 µM)	0.01 to 0.5 µg/mL (≈ 0.00551 to 0.275 µM)	0.01 to 0.5 µg/mL (≈ 0.00551 to 0.275 µM)	0.01 to 0.5 µg/mL (≈ 0.00551 to 0.275 µM)	0.01 to 0.5 µg/mL (≈ 0.00551 to 0.275 µM)	0.01 to 0.5 µg/mL (≈ 0.00551 to 0.275 µM)	–
